Test results as given in PubChem BioAssay AID264 (DTP/NCI, 2004).
Where “and” joins values, the source holds several entries; their conditions need not be identical. Identical values can stand only once. Records with an inconclusive call do not appear. Numbered stars: 1 amine (or outer) side, 2 acyl side, 3 side chain; on linkers, the order of the positions; unused ones are H or OH. Bridge positions count the residues as written; N and C are the ends. Square brackets hold non-standard residues; d marks the D form. Peptide text beside a SMILES is read from it. I, II: the chains in the order shown. Actinocin(1to9) = Cc1c2oc3c(C)ccc(C(=O)[*:2])c3nc-2c(C(=O)[*:1])c(N)c1=O; NMeV = CN[CH](C(=O)O)C(C)C; Aze = O=C(O)[CH]1CCN1; Sar = CNCC(=O)O

Tested on: nude mice, LX-1 lung xenograft intrarenal, tumor weight T/C
Test: NCI In Vivo Anticancer Drug Screen. Data for tumor model Human Lung LX-1 Xenograft (intrarenal inoculation) in NU/NU Swiss (nude) mice
Details: endpoint: mean tumor weight change, higher = larger tumour
Method in brief: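 Tumor-bearing mice receive test compound or vehicle; tumor size is then measured in each group. The treated value is divided by the vehicle value to give T/C.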

[1] = dose: 300.0 mg/kg/injection, schedule: Q04DX003 (sc), vehicle: suspension in saline
[2] = dose: 600.0 mg/kg/injection, schedule: Q04DX003 (sc), vehicle: suspension in saline
[3] = dose: 1200.0 mg/kg/injection, schedule: Q04DX003 (sc), vehicle: suspension in saline
[4] = dose: 300.0 mg/kg/injection, schedule: Q04DX003 (sc), vehicle: saline with Tween-80
[5] = dose: 600.0 mg/kg/injection, schedule: Q04DX003 (sc), vehicle: saline with Tween-80
[6] = dose: 1200.0 mg/kg/injection, schedule: Q04DX003 (sc), vehicle: saline with Tween-80
[7] = dose: 2400.0 mg/kg/injection, schedule: Q04DX003 (sc), vehicle: saline with Tween-80

`Nc1ccc(Cl)cc1N` was tested, and the T/C (dose: 450.0 mg/kg/injection, schedule: Q04DX003 (sc), vehicle: saline with Tween-80) was 115 % of control and the T/C (dose: 900.0 mg/kg/injection, schedule: Q04DX003 (sc), vehicle: saline with Tween-80) was 92 % of control.

With `CC1(C)N=C(N)N=C(N)N1c1ccc(F)c(C(F)(F)F)c1` the T/C (dose: 3.13 mg/kg/injection, schedule: Q01DX010 (sc), vehicle: saline) was 76 % of control, the T/C (dose: 12.5 mg/kg/injection, schedule: Q01DX010 (sc), vehicle: saline) was 118 % of control and 122 % of control and the T/C (dose: 25.0 mg/kg/injection, schedule: Q01DX010 (sc), vehicle: saline) was 33 % of control.

In the case of `OCCO`, the T/C (dose: 8.0 % in 0.5 ml injection vol, schedule: Q04DX003 (sc), vehicle: water) is reported as 121 % of control and the T/C (dose: 16.0 % in 0.5 ml injection vol, schedule: Q04DX003 (sc), vehicle: water) is reported as 108 % of control.

For `Cc1c(N)nc(C(CC(N)=O)NCC(N)C(N)=O)nc1C(=O)NC(C(=O)NC(C)C(O)C(C)C(=O)NC(C(=O)NCCc1nc(-c2nc(C(=O)NCCCNC(C)c3ccccc3)cs2)cs1)C(C)O)C(OC1OC(CO)C(O)C(O)C1OC1OC(CO)C(O)C(OC(N)=O)C1O)c1cnc[nH]1` (stereo unspecified), the T/C (dose: 2.0 mg/kg/injection, schedule: Q01DX010 (sc), vehicle: saline) was 53 % of control, the T/C (dose: 4.0 mg/kg/injection, schedule: Q01DX010 (sc), vehicle: saline) was 32 % of control and the T/C (dose: 16.0 mg/kg/injection, schedule: Q01DX010 (sc), vehicle: saline) was 22 % of control and 28 % of control. For the same molecule, the T/C (dose: 32.0 mg/kg/injection, schedule: Q01DX010 (sc), vehicle: saline) was 39 % of control.

With `NC(Cn1ccc(=O)c(O)c1)C(=O)O` (stereo unspecified) the T/C [1] was 115 % of control, the T/C [2] was 104 % of control and the T/C [3] was 119 % of control. The T/C (dose: 2400.0 mg/kg/injection, schedule: Q04DX003 (sc), vehicle: suspension in saline) was 73 % of control.

`C=C1CC2(OC1=O)C(=O)N(C)c1ccc(I)cc12` (stereo unspecified) was tested, and the T/C (dose: 150.0 mg/kg/injection, schedule: Q04DX003 (sc), vehicle: suspension in saline) was 68 % of control, the T/C [1] was 34 % of control and the T/C [2] was 34 % of control. For the same molecule, the T/C [3] was 62 % of control.

For `[Cl][Sn]([c]1ccccc1)[c]1ccccc1`, the T/C (dose: 150.0 mg/kg/injection, schedule: Q04DX003 (sc), vehicle: saline) was 92 % of control and the T/C (dose: 600.0 mg/kg/injection, schedule: Q04DX003 (sc), vehicle: saline) was 84 % of control.

In the case of `CCCCOC(=O)/C=C(\Br)C(=O)OCCCC`, the T/C (dose: 100.0 mg/kg/injection, schedule: Q01DX010 (sc), vehicle: saline with Tween-80) is reported as 166 % of control, the T/C (dose: 200.0 mg/kg/injection, schedule: Q01DX010 (sc), vehicle: saline with Tween-80) is reported as 281 % of control and the T/C (dose: 400.0 mg/kg/injection, schedule: Q01DX010 (sc), vehicle: saline with Tween-80) is reported as 251 % of control.

With `Cc1c2oc3c(C)ccc(C(=O)NC4C(=O)NC(C(C)C)C(=O)N5CCCC5C(=O)N(C)CC(=O)N(C)C(C(C)C)C(=O)OC4C)c3nc-2c(C(=O)NC2C(=O)NC(C(C)C)C(=O)N3CCC3C(=O)N(C)CC(=O)N(C)C(C(C)C)C(=O)OC2C)c(N)c1=O` (stereo unspecified) (I: TV[Aze][Sar][NMeV] / II: TVP[Sar][NMeV]; ester I:1-I:C, II:1-II:C; linker I:N-II:N via Actinocin(1to9); configuration not given here) the T/C (dose: 0.25 mg/kg/injection, schedule: Q04DX003 (sc), vehicle: saline + alcohol) was 58 % of control, the T/C (dose: 0.5 mg/kg/injection, schedule: Q04DX003 (sc), vehicle: saline + alcohol) was 44 % of control and the T/C (dose: 1.0 mg/kg/injection, schedule: Q04DX003 (sc), vehicle: saline + alcohol) was 29 % of control.

With `COCCCNC1=C(C#N)C(=O)NC(c2cccc([N+](=O)[O-])c2)S1` (stereo unspecified) the T/C [4] was 109 % of control, the T/C [5] was 78 % of control and the T/C [6] was 124 % of control. The T/C [7] was 68 % of control.

In the case of `CCCCC1CCCCCCc2[nH]c(/C=C3\N=C(c4ccc[nH]4)C=C3OC)cc21` (stereo unspecified), the T/C (dose: 4.0 mg/kg/injection, schedule: Q04DX003 (sc), vehicle: saline with Tween-80) is reported as 61 % of control, the T/C (dose: 8.0 mg/kg/injection, schedule: Q04DX003 (sc), vehicle: saline with Tween-80) is reported as 66 % of control and the T/C (dose: 16.0 mg/kg/injection, schedule: Q04DX003 (sc), vehicle: saline with Tween-80) is reported as 55 % of control.

In the case of `O=C(C#Cc1ccccc1)c1ccccc1`, the T/C (dose: 18.75 mg/kg/injection, schedule: Q04DX003 (sc), vehicle: Klucel (hydroxypropylcellulose) (HPC)) is reported as 87 % of control, the T/C (dose: 25.0 mg/kg/injection, schedule: Q04DX003 (sc), vehicle: Klucel (hydroxypropylcellulose) (HPC)) is reported as 111 % of control and the T/C (dose: 37.5 mg/kg/injection, schedule: Q04DX003 (sc), vehicle: Klucel (hydroxypropylcellulose) (HPC)) is reported as 96 % of control. The T/C (dose: 50.0 mg/kg/injection, schedule: Q04DX003 (sc), vehicle: Klucel (hydroxypropylcellulose) (HPC)) was 90 % of control, the T/C (dose: 75.0 mg/kg/injection, schedule: Q04DX003 (sc), vehicle: Klucel (hydroxypropylcellulose) (HPC)) was 105 % of control and the T/C (dose: 100.0 mg/kg/injection, schedule: Q04DX003 (sc), vehicle: Klucel (hydroxypropylcellulose) (HPC)) was 113 % of control. For the same molecule, the T/C (dose: 150.0 mg/kg/injection, schedule: Q04DX003 (sc), vehicle: Klucel (hydroxypropylcellulose) (HPC)) was 65 % of control and the T/C (dose: 200.0 mg/kg/injection, schedule: Q04DX003 (sc), vehicle: Klucel (hydroxypropylcellulose) (HPC)) was 81 % of control.

With `COc1cccc2c1C(=O)c1c(O)c3c(c(O)c1C2=O)C[C@@](O)(C(=O)CO)C[C@@H]3OC1CC(N)C(O)C(C)O1` (stereo partly specified) the T/C (dose: 4.0 mg/kg/injection, schedule: Q04DX003 (sc), vehicle: water) was 45 % of control and 53 % of control, the T/C (dose: 4.5 mg/kg/injection, schedule: Q04DX003 (sc), vehicle: saline) was 72 % of control and the T/C (dose: 9.0 mg/kg/injection, schedule: Q04DX003 (sc), vehicle: saline) was 44 % of control.

For `CC(=O)OCC1OC(OC(C)=O)C(NC(=O)N(CCCl)N=O)C(OC(C)=O)C1OC(C)=O` (stereo unspecified), the T/C (dose: 12.0 mg/kg/injection, schedule: Q04DX003 (sc), vehicle: Klucel (hydroxypropylcellulose) (HPC)) was 36 % of control and the T/C (dose: 24.0 mg/kg/injection, schedule: Q04DX003 (sc), vehicle: Klucel (hydroxypropylcellulose) (HPC)) was 25 % of control.

With `COc1cccc2c1C(=O)c1c(O)c3c(c(O)c1C2=O)C[C@@](O)(/C(CO)=N/NC(=O)c1ccc(Cl)c(Cl)c1)C[C@@H]3OC1CC(N)C(O)C(C)O1` (stereo partly specified) the T/C (dose: 8.0 mg/kg/injection, schedule: Q01DX010 (sc), vehicle: water) was 28 % of control, the T/C (dose: 16.0 mg/kg/injection, schedule: Q01DX010 (sc), vehicle: water) was 2 % of control and the T/C (dose: 24.0 mg/kg/injection, schedule: Q04DX003 (sc), vehicle: water) was 54 % of control. For the same molecule, the T/C (dose: 48.0 mg/kg/injection, schedule: Q04DX003 (sc), vehicle: water) was 66 % of control, the T/C (dose: 96.0 mg/kg/injection, schedule: Q04DX003 (sc), vehicle: water) was 33 % of control and the T/C (dose: 192.0 mg/kg/injection, schedule: Q04DX003 (sc), vehicle: water) was 30 % of control.

With `O=C1OC(=O)[C@H]2[C@@H]1[C@H]1C=C[C@@H]2OC1=O` the T/C [1] was 90 % of control, the T/C [2] was 104 % of control and the T/C [3] was 72 % of control.

For `C=C1C(=O)OCC1C(=O)O` (stereo unspecified), the T/C (dose: 50.0 mg/kg/injection, schedule: Q04DX003 (sc), vehicle: suspension in saline) was 123 % of control, the T/C (dose: 100.0 mg/kg/injection, schedule: Q04DX003 (sc), vehicle: suspension in saline) was 95 % of control and the T/C (dose: 200.0 mg/kg/injection, schedule: Q04DX003 (sc), vehicle: suspension in saline) was 99 % of control.

For `CCCCCCC(=O)CC(SCC)c1ccccc1Cl` (stereo unspecified), the T/C [4] was 82 % of control, the T/C [5] was 96 % of control and the T/C [6] was 92 % of control. The T/C [7] was 72 % of control.

In the case of `C[C@@]1(CO)[C@H](O)CC[C@@]2(C)[C@H]1CC[C@H]1C[C@@H]3C[C@@]12CC[C@@]3(O)COC(=O)CN`, the T/C (dose: 133.0 mg/kg/injection, schedule: Q01DX010 (sc), vehicle: saline + alcohol) is reported as 101 % of control, the T/C (dose: 200.0 mg/kg/injection, schedule: Q01DX010 (sc), vehicle: saline + alcohol) is reported as 106 % of control and the T/C (dose: 62.5 micrograms/kg/injection, schedule: Q01DX010 (sc), vehicle: saline + alcohol) is reported as 102 % of control. For the same molecule, the T/C (dose: 500.0 micrograms/kg/injection, schedule: Q01DX010 (sc), vehicle: saline + alcohol) was 115 % of control.

In the case of `C1CCC2C[N-]CCC2C1.C1CCC2C[N-]CCC2C1.C1CCC2C[N-]CCC2C1.C1CCC2C[N-]CCC2C1.[Cl][Rh][Cl]` (stereo unspecified), the T/C (dose: 4.5 mg/kg/injection, schedule: Q04DX003 (sc), vehicle: saline with Tween-80) is reported as 64 % of control, the T/C (dose: 9.0 mg/kg/injection, schedule: Q04DX003 (sc), vehicle: saline with Tween-80) is reported as 89 % of control and the T/C (dose: 18.0 mg/kg/injection, schedule: Q04DX003 (sc), vehicle: saline with Tween-80) is reported as 63 % of control. The T/C (dose: 36.0 mg/kg/injection, schedule: Q04DX003 (sc), vehicle: saline with Tween-80) was 60 % of control.
